In patent US12594276B2, “Inhibitors of human immunodeficiency virus replication” (ViiV Healthcare UK (No.5) Limited, priority 2024, dated 2026):

Assays:
[1] = Compound cytotoxicity, XTT-based colorimetric assay; type: cell-based; conditions: human; uninfected MT2 cells, day 4, XTT; read-out: CC50
Method in brief: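 Follows the antiviral assay procedure, but with uninfected MT2 cells. On day 4, cell viability is measured by XTT-based colorimetry, giving CC50 values.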

[2] = test system: recombinant NL4-3 virus (nef section replaced with Renilla luciferase gene) in MT-2 cells; assay: HIV cell culture assay (antiviral activity, luciferase readout); type: cell-based; conditions: Renilla, NL43, MT-2 cells infected for 4-5 days with recombinant NL4-3 Renilla luciferase virus
Method in brief: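 Antiviral EC50 derived from luciferase signal using the exponential median effect equation. Infection of MT-2 cells ran 4-5 days alongside serial dilutions of compound, with virus generated by proviral clone transfection of 293T cells.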

COCCCn1nc(NS(C)(=O)=O)c2c(Cl)ccc(-n3c([C@H](Cc4cc(F)cc(F)c4)NC(=O)Cn4nc(C(F)F)c5c4C(F)(F)[C@@H]4C[C@H]54)nc4nc(C5CCC(F)(F)CC5)cc(NCCN5CCOCC5)c4c3=O)c21 (atropisomer, axis not shown; (P)) [Example 430, N-[(1S)-1-[(3P)-3-[4-chloro-3-methanesulfonamido-1-(3-methoxypropyl)-1H-indazol-7-yl]-7-(4,4-difluorocyclohexyl)-5-{[2-(morpholin-4-yl)ethyl]amino}-4-oxo-3H,4H-pyrido[2,3-d]pyrimidin-2-yl]-2-(3,5-difluorophenyl)ethyl]-2-[(2S,4R)-9-(difluoromethyl)-5,5-difluoro-7,8-diazatricyclo[4.3.0.0^2,^4]nona-1(6),8-dien-7-yl]acetamide]
CC50 at 4 days [1]: > 20 nM
EC50 [2]: 0.011 nM

Cc1cc(C2CCC(F)(F)CC2)nc2nc([C@H](Cc3cc(F)cc(F)c3)NC(=O)Cn3nc(C4CC4)c4c3C[C@@H]3C[C@H]43)n(-c3ccc(Cl)c4c(NS(C)(=O)=O)nn(CCN5CC(C)(C)OC(C)(C)C5)c34)c(=O)c12 (atropisomer, axis not shown; (P)) [Example 13, N-[(1S)-1-[(3P)-3-{4-chloro-3-methanesulfonamido-1-[2-(2,2,6,6-tetramethylmorpholin-4-yl)ethyl]-1H-indazol-7-yl}-7-(4,4-difluorocyclohexyl)-5-methyl-4-oxo-3H,4H-pyrido[2,3-d]pyrimidin-2-yl]-2-(3,5-difluorophenyl)ethyl]-2-[(2S,4S)-9-cyclopropyl-7,8-diazatricyclo[4.3.0.0^2,4]nona-1(6),8-dien-7-yl]acetamide]
CC50 at 4 days [1]: > 20000 nM
EC50 [2]: 0.011 nM

Cc1cc(C2(F)CCC(F)(F)CC2)nc2nc([C@H](Cc3cc(F)cc(F)c3)NC(=O)Cn3nc(C4CC4)c4c3C[C@@H]3C[C@H]43)n(-c3ccc(Cl)c4c(NS(C)(=O)=O)nn([C@@H](C)CN5C[C@@H](C)O[C@@H](C)C5)c34)c(=O)c12 (relative stereo) [Example 748, N-[(1S)-1-[(3P)-3-{4-chloro-1-[(2S)-1-[(2R,6S)-2,6-dimethylmorpholin-4-yl]propan-2-yl]-3-methanesulfonamido-1H-indazol-7-yl}-5-methyl-4-oxo-7-(1,4,4-trifluorocyclohexyl)-3H,4H-pyrido[2,3-d]pyrimidin-2-yl]-2-(3,5-difluorophenyl)ethyl]-2-[(2R*,4R*)-9-cyclopropyl-7,8-diazatricyclo[4.3.0.0^2,^4]nona-1(6),8-dien-7-yl]acetamide]
CC50 at 4 days [1]: > 20 nM
EC50 [2]: 0.024 nM

COCCNc1cc(C2CCC(F)(F)CC2)nc2nc([C@H](Cc3cc(F)cc(F)c3)NC(=O)Cn3nc(C(F)F)c4c3C(F)(F)[C@@H]3C[C@H]43)n(-c3ccc(Cl)c4c(NS(C)(=O)=O)nn(CCN5C[C@H]6CC[C@@H](C5)O6)c34)c(=O)c12 (atropisomer, axis not shown; (P)) [Example 420, N-[(1S)-1-[(3P)-3-(4-chloro-3-methanesulfonamido-1-{2-[(1R,5S)-8-oxa-3-azabicyclo[3.2.1]octan-3-yl]ethyl}-1H-indazol-7-yl)-7-(4,4-difluorocyclohexyl)-5-[(2-methoxyethyl)amino]-4-oxo-3H,4H-pyrido[2,3-d]pyrimidin-2-yl]-2-(3,5-difluorophenyl)ethyl]-2-[(2S,4R)-9-(difluoromethyl)-5,5-difluoro-7,8-diazatricyclo[4.3.0.0^2,^4]nona-1(6),8-dien-7-yl]acetamide]
CC50 at 4 days [1]: > 20 nM
EC50 [2]: 0.011 nM

Cc1cc(C2(C)CCC(F)(F)CC2)nc2nc([C@H](Cc3cc(F)cc(F)c3)NC(=O)Cn3nc(C(F)F)c4c3C(F)(F)[C@@H]3C[C@H]43)n(-c3ccc(Cl)c4c(NS(C)(=O)=O)nn(CCN5C[C@H](F)C[C@H](F)C5)c34)c(=O)c12 (atropisomer, axis not shown; (P)) [Example 473, N-[(1S)-1-[(3P)-3-(4-chloro-1-{2-[(3R,5S)-3,5-difluoropiperidin-1-yl]ethyl}-3-methanesulfonamido-1H-indazol-7-yl)-7-(4,4-difluoro-1-methylcyclohexyl)-5-methyl-4-oxo-3H,4H-pyrido[2,3-d]pyrimidin-2-yl]-2-(3,5-difluorophenyl)ethyl]-2-[(2S,4R)-9-(difluoromethyl)-5,5-difluoro-7,8-diazatricyclo[4.3.0.0^2,^4]nona-1(6),8-dien-7-yl]acetamide]
CC50 at 4 days [1]: > 20 nM
EC50 [2]: 0.008 nM

COCCNc1cc(C2CCC(F)(F)CC2)nc2nc([C@H](Cc3cc(F)cc(F)c3)NC(=O)Cn3nc(C(F)F)c4c3C(F)(F)[C@@H]3C[C@H]43)n(-c3ccc(Cl)c4c(NS(C)(=O)=O)nn(CCOC)c34)c(=O)c12 (atropisomer, axis not shown; (P)) [Example 134, N-[(1S)-1-[(3P)-3-[4-chloro-3-methanesulfonamido-1-(2-methoxyethyl)-1H-indazol-7-yl]-7-(4,4-difluorocyclohexyl)-5-[(2-methoxyethyl)amino]-4-oxo-3H,4H-pyrido[2,3-d]pyrimidin-2-yl]-2-(3,5-difluorophenyl)ethyl]-2-[(2S,4R)-9-(difluoromethyl)-5,5-difluoro-7,8-diazatricyclo[4.3.0.0^2,^4]nona-1(6),8-dien-7-yl]acetamide]
CC50 at 4 days [1]: > 50 nM
EC50 [2]: 0.022 nM

CS(=O)(=O)Nc1nn(CCN2CCOCC2)c2c(-n3c([C@H](Cc4cc(F)cc(F)c4)NC(=O)Cn4nc(C5CC5)c5c4C[C@@H]4C[C@H]54)nc4nc(C5CCC(F)(F)CC5)cc(C(F)F)c4c3=O)ccc(Cl)c12 [Example 227, N-[(1S)-1-[(3P)-3-{4-chloro-3-methanesulfonamido-1-[2-(morpholin-4-yl)ethyl]-1H-indazol-7-yl}-7-(4,4-difluorocyclohexyl)-5-(difluoromethyl)-4-oxo-3H,4H-pyrido[2,3-d]pyrimidin-2-yl]-2-(3,5-difluorophenyl)ethyl]-2-[(2S,4S)-9-cyclopropyl-7,8-diazatricyclo[4.3.0.0^2,^4]nona-1(6),8-dien-7-yl]acetamide]
CC50 at 4 days [1]: > 50 nM
EC50 [2]: 0.016 nM

Cc1cc(C2CCC(F)(F)CC2)nc2nc([C@H](Cc3cc(F)cc(F)c3)NC(=O)Cn3nc(C(F)F)c4c3C(F)(F)[C@@H]3C[C@H]43)n(-c3ccc(Cl)c4c(NS(C)(=O)=O)nn(CCN5CCC(F)CC5)c34)c(=O)c12 (atropisomer, axis not shown; (P)) [Example 270, N-[(1S)-1-[(3P)-3-{4-chloro-1-[2-(4-fluoropiperidin-1-yl)ethyl]-3-methanesulfonamido-1H-indazol-7-yl}-7-(4,4-difluorocyclohexyl)-5-methyl-4-oxo-3H,4H-pyrido[2,3-d]pyrimidin-2-yl]-2-(3,5-difluorophenyl)ethyl]-2-[(2S,4R)-9-(difluoromethyl)-5,5-difluoro-7,8-diazatricyclo[4.3.0.0^2,^4]nona-1(6),8-dien-7-yl]acetamide]
CC50 at 4 days [1]: > 50 nM
EC50 [2]: 0.011 nM

Cc1cc(C2(F)CCC(F)(F)CC2)nc2nc([C@H](Cc3cc(F)cc(F)c3)NC(=O)Cn3nc(C(F)F)c4c3C(F)(F)[C@@H]3C[C@H]43)n(-c3ccc(Cl)c4c(NS(C)(=O)=O)nn(C[C@@H](C)N5C[C@@H](C)O[C@@H](C)C5)c34)c(=O)c12 (atropisomer, axis not shown; (P)) [Example 720, N-[(1S)-1-[(3P)-3-{4-chloro-1-[(2R)-2-[(2R,6S)-2,6-dimethylmorpholin-4-yl]propyl]-3-methanesulfonamido-1H-indazol-7-yl}-5-methyl-4-oxo-7-(1,4,4-trifluorocyclohexyl)-3H,4H-pyrido[2,3-d]pyrimidin-2-yl]-2-(3,5-difluorophenyl)ethyl]-2-[(2S,4R)-9-(difluoromethyl)-5,5-difluoro-7,8-diazatricyclo[4.3.0.0^2,^4]nona-1(6),8-dien-7-yl]acetamide]
CC50 at 4 days [1]: > 20 nM
EC50 [2]: 0.007 nM

C[C@@H](CN1C[C@H](F)C[C@H](F)C1)n1nc(NS(C)(=O)=O)c2c(Cl)ccc(-n3c([C@H](Cc4cc(F)cc(F)c4)NC(=O)Cn4nc(C(F)F)c5c4C(F)(F)[C@@H]4C[C@H]54)nc4nc(C5CCC(F)(F)CC5)cc(C5CC5)c4c3=O)c21 (atropisomer, axis not shown; (P)) [Example 735, N-[(1S)-1-[(3P)-3-{4-chloro-1-[(2S)-1-[(3R,5S)-3,5-difluoropiperidin-1-yl]propan-2-yl]-3-methanesulfonamido-1H-indazol-7-yl}-5-cyclopropyl-7-(4,4-difluorocyclohexyl)-4-oxo-3H, 4H-pyrido[2,3-d]pyrimidin-2-yl]-2-(3,5-difluorophenyl)ethyl]-2-[(2S,4R)-9-(difluoromethyl)-5,5-difluoro-7,8-diazatricyclo[4.3.0.0^2,^4]nona-1(6),8-dien-7-yl]acetamide]
CC50 at 4 days [1]: > 20 nM
EC50 [2]: 0.018 nM

CCc1cc(C2CCC(F)(F)CC2)nc2nc([C@H](Cc3cc(F)cc(F)c3)NC(=O)Cn3nc(C(F)F)c4c3C(F)(F)[C@@H]3C[C@H]43)n(-c3ccc(Cl)c4c(NS(C)(=O)=O)nn(CCOC)c34)c(=O)c12 (atropisomer, axis not shown; (P)) [Example 632, N-[(1S)-1-[(3P)-3-[4-chloro-3-methanesulfonamido-1-(2-methoxyethyl)-1H-indazol-7-yl]-7-(4,4-difluorocyclohexyl)-5-ethyl-4-oxo-3H,4H-pyrido[2,3-d]pyrimidin-2-yl]-2-(3,5-difluorophenyl)ethyl]-2-[(2S,4R)-9-(difluoromethyl)-5,5-difluoro-7,8-diazatricyclo[4.3.0.0^2,^4]nona-1(6),8-dien-7-yl]acetamide]
CC50 at 4 days [1]: > 50 nM
EC50 [2]: 0.021 nM
